Data as given in paper PMC7168207, “Dibasic Derivatives of Phenylcarbamic Acid as Prospective Antibacterial Agents Interacting with Cytoplasmic Membrane” (Antibiotics, 2020).
Values joined by “and” are separate entries in the source; they are usually repeats but may differ in a detail not shown here. Equal entries are not always repeated. Where two headings read alike, the source gives them in different places.

What was measured:
[1] = system: vancomycin-resistant enterococci VRE 368; assay: MIC, broth microdilution; assay type: cell-based, Enterococcus faecalis; settings: Enterococcus; VRE2 = VRE 368; read-out: MICs
Description: (§1) The modified broth microdilution method was used for in vitro evaluation of minimum inhibitory concentration. A small portion of bacterial colony cultivated overnight onto nutrient agar (Oxoid, Basingstoke, UK) with 5% bovine blood was suspended in sterile phosphate-buffered saline to get cell density 0.5 McFarland. This inoculum was diluted to reach the final concentration of bacterial cells 5 × 10^5 CFU/mL in the wells. […] For plates with staphylococci, cation adjusted Mueller–Hinton (CaMH) broth (Oxoid) was used; enterococci were cultivated in brain heart infusion (BHI, Oxoid). […] A drug-free control and a sterility control were included. Inoculated plates were incubated in aerobic atmosphere at 37 °C overnight. […] After evaluation of MICs, 10 µL of aliquots from the wells were put onto Mueller–Hinton agar. The agar plates were cultivated at 37 °C for 24 h. The minimum bactericidal concentration (MBC) was defined as the lowest concentration of the compound that killed 99.9% of the bacteria compared to the starting inoculum.

[2] = system: vancomycin-resistant enterococci VRE 725B; assay: MIC, broth microdilution; assay type: cell-based, Enterococcus faecalis; settings: Enterococcus; VRE3 = VRE 725B; read-out: MICs
Description: as §1

E. faecalis ATCC 29212 = assay: MIC, broth microdilution; assay type: cell-based, Enterococcus faecalis; settings: Enterococcus faecalis, ATCC 29212 / ATCC 29213; EF = E. faecalis ATCC 29213
Description: as §1

[3] = system: vancomycin-resistant enterococci VRE 342B; assay: MIC, broth microdilution; assay type: cell-based, Enterococcus faecalis; settings: Enterococcus; VRE1 = VRE 342B; read-out: MICs
Description: as §1

[4] = system: human monocytic leukemia THP-1 cells; assay: in vitro antiproliferative assay (WST-1); assay type: cell-based; settings: THP-1 cells, WST-1, 24 h, read-out: Tox IC50
Description: The preliminary in vitro screening of the antiproliferative effect of the investigated compounds was performed using a Water Soluble Tetrazolium salts-1 (WST-1) assay kit and a human monocytic leukemia THP-1 cell line by means of the method described recently. The principle of the WST-1 assay kit is the […] mitochondrial dehydrogenases by antiproliferative compounds. The activity of this enzyme directly correlates with the number of metabolically active cells in the culture. The antiproliferative effect was evaluated as the IC50 value (the concentration of the compound causing 50% inhibition of cell proliferation).
Human monocytic leukemia THP-1 cells were used for in vitro antiproliferative assay. Cells were obtained from the European Collection of Cell Cultures (ECACC, Salisbury, UK) and routinely cultured in RPMI (Roswell Park Memorial Institute) 1640 medium supplemented with 10% fetal bovine serum, 2% L-glutamine, 1% penicillin, and streptomycin at 37 °C with 5% CO2. Cells were passaged at approximately one-week intervals. The antiproliferative activity of the compounds was determined using a Water Soluble Tetrazolium Salts-1 (WST-1, 2-(4-iodophenyl)-3-(4-nitrophenyl)-5-(2,4-disulfophenyl)-2H-tetrazolium) assay kit (Roche Diagnostics, Mannheim, Germany) according to the manufacturer’s instructions. The tested compounds were dissolved in DMSO and added in various compound concentrations to the cell suspension in the culture RPMI 1640 medium. The maximum concentration of DMSO in the assays never exceeded 0.1%. Subsequently, the cells were incubated at 37 °C with 5% CO2 for 24 h. For WST-1 assays, cells were seeded into 96-well plates (5 × 10^4 cells/well in 100 μL culture medium) in triplicate in serum-free RPMI 1640 medium, and measurements were taken 24 h after the treatment with the compounds. The median inhibition concentration values, IC50, were deduced through the production of a dose-response curve. All data were evaluated using GraphPad Prism 5.00 software (GraphPad Software, San Diego, CA, USA).

[5] = parameters: method as in PMID 30274224; settings: isocratic RP-HPLC, extrapolated lipophilicity index; cited from earlier work
[6] = parameters: method as in PMID 30274224; settings: methanolic solutions, c = 8.0 × 10^−5 M; cited from earlier work
[7] = parameters: method as in PMID 30274224; settings: cited from earlier work
[8] = system: Candida albicans CCM 8261; assay: minimum fungistatic concentration, RPMI 1640; assay type: cell-based; settings: CCM8261, CA = C albicans CCM 8261, 48 h
Description: Fungistatic activity was tested similarly in RPMI (Roswell Park Memorial Institute) 1640 medium (Sigma, Pool, UK). […] A growth control and sterility control were included. The colonies of C. albicans grown overnight on Sabourad dextrose agar were suspended in sterile phosphate-buffered saline (PBS) to get cell density 0.5 McFarland. The inoculum was diluted to get a final concentration of 10^3 CFU/mL in the wells. Plates were inoculated and cultivated at 37 °C for 48 h. The minimum fungistatic concentration was visually evaluated as the lowest concentration of a tested compound, which inhibited 100% of yeast growth. 5-Flucytosin (Sigma, UK) was used as a positive control.

[9] = system: methicillin-resistant S. aureus SA 630; assay: MIC, broth microdilution; assay type: cell-based, Staphylococcus aureus; settings: Staphylococcus aureus; MRSA2 = SA 630; read-out: MICs
Description: as §1

S. aureus ATCC 29213 = assay: MIC, broth microdilution; assay type: cell-based, Staphylococcus aureus; settings: Staphylococcus aureus, ATCC29213; SA = S. aureus ATCC 29213; read-out: MICs
Description: as §1

[10] = system: methicillin-resistant S. aureus SA 3202; assay: MIC, broth microdilution; assay type: cell-based, Staphylococcus aureus; settings: Staphylococcus aureus; MRSA3 = SA 3202; read-out: MICs
Description: as §1

[11] = system: methicillin-resistant S. aureus 63718; assay: MIC, broth microdilution; assay type: cell-based, Staphylococcus aureus; settings: Staphylococcus aureus; MRSA1 = S. aureus 63718; read-out: MICs
Description: as §1

MIC [1]	MIC [2]	MIC (E. faecalis ATCC 29212)	MIC [3]	MIC [8]	MIC [9]	MIC (S. aureus ATCC 29213)	MIC [10]	MIC [11]	Compound	IC50 ([4]; Homo sapiens, THP-1, 24 h) [µM]	IC50 [4] [µM]	log kw [5]	log ε2 (Ch-T) [6]	γ (surface tension, relative surface activity) [7] [N/m]
256 µg/mL and 455 µM	16 µg/mL and 28.4 µM	8 µg/mL and 14.2 µM	64 µg/mL and 113 µM	> 128 µg/mL and > 227 µM	> 256 µg/mL and > 455 µM	> 256 µg/mL and > 455 µM	> 256 µg/mL and > 455 µM	256 µg/mL and 455 µM	CCCCCCCOc1cccc(NC(=O)OC(CN(CCC)CCC)CN2CCCCCC2)c1 (stereo not shown) [1p]	< 6.5	6.32 ± 0.58	6.1749	4.20	0.05692
> 256 µg/mL and > 398 µM	> 256 µg/mL and > 398 µM	> 256 µg/mL and > 398 µM	> 256 µg/mL and > 398 µM	> 128 µg/mL and 199 µM	> 256 µg/mL and > 398 µM	> 256 µg/mL and > 398 µM	> 256 µg/mL and > 398 µM	> 256 µg/mL and > 398 µM	CCCCCCCOc1ccccc1NC(=O)OC(CN(CCC)CCC)CN1CCCC1 (stereo not shown) [1d]	16.3 ± 0.7		4.9487	4.08	0.05985
> 256 µg/mL and > 407 µM	> 256 µg/mL and > 407 µM	> 256 µg/mL and > 407 µM	> 256 µg/mL and > 407 µM	> 128 µg/mL and > 203 µM	> 256 µg/mL and > 407 µM	> 256 µg/mL and > 407 µM	> 256 µg/mL and > 407 µM	> 256 µg/mL and > 407 µM	CCCCOc1ccccc1NC(=O)OC(CN(CCC)CCC)CN1CCCCCC1 (stereo not shown) [1i]	23.1 ± 0.95		4.4679	4.08	0.06302
256 µg/mL and 466 µM	8 µg/mL and 14.6 µM	16 µg/mL and 29.2 µM	32 µg/mL and 58.3 µM	> 128 µg/mL and > 233 µM	> 256 µg/mL and > 466 µM	> 256 µg/mL and > 466 µM	> 256 µg/mL and > 466 µM	128 µg/mL and 233 µM	CCCCCCOc1cccc(NC(=O)OC(CN(CCC)CCC)CN2CCCCCC2)c1 (stereo not shown) [1o]	< 6.5	4.71 ± 0.07	5.6569	4.01	0.05925
> 256 µg/mL and > 417 µM	> 256 µg/mL and > 417 µM	> 256 µg/mL and > 417 µM	> 256 µg/mL and > 417 µM	> 128 µg/mL and > 208 µM	> 256 µg/mL and > 417 µM	> 256 µg/mL and > 417 µM	> 256 µg/mL and > 417 µM	> 256 µg/mL and > 417 µM	CCCCCOc1ccccc1NC(=O)OC(CN(CCC)CCC)CN1CCCC1 (stereo not shown) [1b]	12.5 ± 1.22		4.0454	4.05	0.06366
> 256 µg/mL and > 407 µM	> 256 µg/mL and > 407 µM	> 256 µg/mL and > 407 µM	> 256 µg/mL and > 407 µM	> 128 µg/mL and > 203 µM	> 256 µg/mL and > 407 µM	> 256 µg/mL and > 407 µM	> 256 µg/mL and > 407 µM	> 256 µg/mL and > 407 µM	CCCCCCOc1ccccc1NC(=O)OC(CN(CCC)CCC)CN1CCCC1 (stereo not shown) [1c]	15.4 ± 0.22		4.6049	4.52	0.06222
> 256 µg/mL and > 398 µM	> 256 µg/mL and > 398 µM	> 256 µg/mL and > 398 µM	> 256 µg/mL and > 398 µM	> 128 µg/mL and > 199 µM	> 256 µg/mL and > 398 µM	> 256 µg/mL and > 398 µM	> 256 µg/mL and > 398 µM	> 256 µg/mL and > 398 µM	CCCCCOc1ccccc1NC(=O)OC(CN(CCC)CCC)CN1CCCCCC1 (stereo not shown) [1j]	26.4 ± 1.91		4.8466	4.22	0.06206
> 256 µg/mL and > 390 µM	> 256 µg/mL and > 390 µM	> 256 µg/mL and > 390 µM	> 256 µg/mL and > 390 µM	> 128 µg/mL and > 195 µM	> 256 µg/mL and > 390 µM	> 256 µg/mL and > 390 µM	> 256 µg/mL and > 390 µM	> 256 µg/mL and > 390 µM	CCCCCCOc1ccccc1NC(=O)OC(CN(CCC)CCC)CN1CCCCCC1 (stereo not shown) [1k]	31.2 ± 2.24		5.2359	4.10	0.06065
